Measured values from PubChem BioAssay (NCI).
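In this assay, cells in 96-well plates receive the compound at five concentrations for 48 hours. Endpoints are linearly interpolated between the surrounding concentrations. GI50 is the concentration that inhibits growth by half. TGI: concentration producing complete growth inhibition.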

Key:
Assay in all cases: NCI tumour cell line growth inhibition, 48 h
[1] = system: KM20L2 colon
[2] = system: XF 498 CNS
[3] = system: M19-MEL melanoma
[4] = system: P388 leukemia
[5] = system: DLD-1 colon
[6] = system: P388/ADR leukemia
[7] = system: SN12K1 renal
[8] = system: DMS 273 small cell lung
[9] = system: HOP-18 NSCLC
[10] = system: SNB-78 CNS
[11] = system: LXFL 529 NSCLC
[12] = system: RXF-631 renal

Row | Compound | TGI [1] [µM] | TGI [2] [µM] | TGI [3] [µM] | TGI [4] [µM] | TGI [5] [µM] | TGI [6] [µM] | TGI [7] [µM] | TGI [8] [µM] | TGI [9] [µM] | TGI [10] [µM] | TGI [11] [µM] | TGI [12] [µM] | GI50 [1] [µM] | GI50 [11] [µM] | GI50 [3] [µM] | GI50 [5] [µM] | GI50 [8] [µM] | GI50 [9] [µM]
1 | CCC1OC(=O)C(C)C(OC2CC(C)(O)C(O)C(C)O2)C(C)C(O)C(C)(O)CC(C)C(=O)C(C)C(O)C1C (stereo unspecified) | > 300 | > 300 | > 300 | > 300 | > 300 | > 300 | > 300 | > 300 | > 300 | > 189 | – | – | – | – | – | – | – | –
2 | O=C(Cl)c1cc([N+](=O)[O-])cc([N+](=O)[O-])c1 | – | > 100 | > 100 | – | > 100 | – | – | > 100 | – | > 100 | > 100 | – | – | – | – | – | – | –
3 | C[N+](C)(C)CC(=O)N/N=C(\C(=O)Nc1ccc(Cl)cc1)C1C(=O)N(c2ccccc2)N=C1N (stereo unspecified) | > 100 | – | > 100 | – | > 100 | – | – | > 100 | – | > 100 | > 100 | – | – | – | – | – | – | –
4 | CN(C)CCCNc1ccc2nnn3c4ccc([N+](=O)[O-])cc4c(=O)c1c23 | 9.69 | 11.4 | 16.2 | – | 14.4 | – | – | 6.89 | 13.6 | 16 | 15 | 7.59 | – | – | – | – | – | –
5 | O=C(N/N=C/c1cc(-c2ccccc2Cl)c(-c2ccccc2Cl)o1)c1ccncc1 | > 100 | > 100 | > 100 | – | > 100 | – | – | – | – | – | > 100 | > 100 | – | – | – | – | – | –
6 | COc1ccc(C2Oc3cc(OC)c(O)cc3[C@@H]2C)cc1 (stereo partly specified) | > 100 | 35.6 | – | – | 44.4 | – | – | > 100 | > 100 | > 100 | 32.1 | – | – | – | – | – | – | –
7 | CC(C)OP(=O)(OC(C)C)c1ncn(-c2ccc([N+](=O)[O-])cc2)n1 | > 100 | > 100 | > 100 | – | > 100 | – | – | > 100 | – | – | > 100 | – | – | – | – | – | – | –
8 | O=C(CCc1nnc2s/c(=C\c3ccc(Cl)cc3Cl)c(=O)n12)Nc1cc(Cl)c(Cl)cc1Cl | > 100 | – | > 100 | – | > 100 | – | – | > 100 | > 100 | > 100 | > 100 | > 100 | > 100 | > 100 | > 100 | > 100 | > 100 | > 100
9 | Cc1cccc2ns[s+]c12 | > 100 | – | – | – | > 100 | – | – | > 100 | > 100 | > 100 | > 100 | – | – | – | – | – | – | –
10 | Nc1nc(NC(=O)C2=NS(=O)(=O)c3cc(S(N)(=O)=O)c(Cl)cc3N2)n[nH]1 | > 100 | > 100 | > 100 | – | > 100 | – | – | – | > 100 | > 100 | > 100 | – | – | – | – | – | – | –
11 | COc1ccccc1C1C(Cl)C(=O)N1NC(=O)Cc1ccccc1 (stereo unspecified) | > 100 | > 100 | > 100 | – | – | – | – | > 100 | > 100 | > 100 | > 100 | – | – | – | – | – | – | –
12 | COC(=O)c1cc(CNCCc2c[nH]c3ccccc23)on1 | > 100 | 67.4 | > 100 | – | > 100 | – | – | > 100 | – | – | > 100 | > 100 | – | – | – | – | – | –
